Data: article PMC7552967, “Anti-Melanoma Activities of Artemisone and Prenylated Amino-Artemisinins in Combination With Known Anticancer Drugs” (Frontiers in Pharmacology, 2020)

Tests used:
A375 melanoma cells [1] = assay: Intracellular ROS, DCFH-DA assay, A375; format: cell-based, human; conditions: A375, 12 h treatment; result in words
Procedure: HaCat and A375 cells were seeded at 25,000 cells/well in 96-well plates (Black plate, Clear bottom, Corning, Costar®, NY, USA) and incubated until cells were ~90% confluent. Serum-free DMEM without phenol red (Thermo Fisher Scientific, Gibco, Carlsbad, CA, USA) was used for all experiments. Cells were exposed to compounds or H2O2 (500 µM) for 12 h. Cell staining with ROS fluorescent indicator 2’,7’-dichlorodihydrofluorescein diacetate (DCFH-DA) was performed 1.5 h before the end of the 12-h exposure time. A kinetic analysis was then performed at 37°C using a microplate reader (SpectraMax® ParadigmTM Molecular Devices, Sunnyvale, CA, USA) by measuring the DCF fluorescence (excitation 485 nm and emission 535 nm) every 10 min for 1 h. […] The Bradford assay (Coomassie blue colorimetric method) was then performed in order to determine the relative amount of protein per well, as an indication of cell number per well, and all fluorescence measurements were normalized relative to the cell number. The background fluorescence produced by blank medium controls and unstained but treated cell controls were subtracted from DCFH-DA stained cells. The DCF fluorescence measured at the beginning of the analysis (time 0) was subtracted from the DCF fluorescence at the indicated times for the kinetic analysis (results not shown). […]
The levels of intracellular ROS were determined using the DCFH-DA assay. […]

A375 melanoma cells [2] = assay: FITC Annexin V/PI flow cytometry, A375; format: cell-based, human; conditions: A375, 24 h
Procedure: The FITC Annexin V apoptosis detection kit I (BD Pharmigen™, BD Biosciences, San Jose, CA, USA) was used for the detection of apoptosis using flow cytometry. FITC Annexin V emits green fluorescence which indicates apoptosis, whereas propidium iodide (PI) emits red fluorescence and stains dead cells ([Vermes et al., 1995]). The assay was performed according to the manufacturer’s instructions with minor alterations. In brief, cells were seeded in a 96-well plate and grown to ~90% confluence. The cells were exposed to amounts of the prenylated piperazine derivatives and combinations with elesclomol-Cu(II) 1-Cu corresponding to the IC50 values. […] After incubation, 100 µl 1X binding buffer was added to each tube and then analyzed using the BD FACSVerse™ and BD FACSuite™ Software. […] At least 10,000 cellular events were analyzed for each sample. A logarithmic amplification scale was employed and events plotted on forward scatter (FSC), side scatter (SSC), green fluorescence (FL1) and red fluorescence (FL2). […]
Flow cytometry was employed to establish if the observed decrease in cell viability in melanoma cells was of necrotic or apoptotic origin. Cultured melanoma and keratinocyte cells were exposed to predetermined IC50 concentrations of the prenylated piperazine-DHA derivatives and analyzed using the FITC Annexin V/PI flow cytometry assay. […]
Figure 8 Apoptosis measured by FITC Annexin V/PI assay. […]

Row | SMILES | Intracellular ROS (DCF fluorescence fold change vs untreated control) (A375 melanoma cells [1]) | Cells undergoing apoptosis (A375 melanoma cells [2]; IC50 concentrations (6 45 µM, 7 30 µM, 1-Cu 2 nM; combinations 1:1)) | Late apoptosis/necrosis (FITC-Annexin V positive and PI positive) (A375 melanoma cells [2]; 45 µM)
1 | CC(C)=CCC/C(C)=C/CC/C(C)=C/CN1CCN([C@@H]2O[C@@H]3O[C@@]4(C)CC[C@H]5[C@H](C)CC[C@@H]([C@H]2C)[C@@]35OO4)CC1 [Farnesylpiperazine-DHA 7, farnesylpiperazine-DHA] | not significantly higher than the untreated control | 30.5 ± 3.7% | 
2 | CC(C)=CCC/C(C)=C/CN1CCN([C@@H]2O[C@@H]3O[C@@]4(C)CC[C@H]5[C@H](C)CC[C@@H]([C@H]2C)[C@@]35OO4)CC1 [Geranylpiperazine-DHA 6, geranylpiperazine-DHA] | not significantly higher when compared to the untreated control |  | 37.7 ± 2.1%
